Test results reported in patent US20180338980A1, “AROMATIC SULFONAMIDE DERIVATIVES” (BAYER PHARMA AKTIENGESELLSCHAFT, priority 2015, published 2018).
Several values for one entry are separate records, joined by “and”; a condition that tells them apart may be missing. Equal entries are not always repeated.

Tests used:
[1] = target: T1, P2X4 (Homo sapiens, UniProt Q99571); experiment: Assay B: human P2X4 receptor cell line, mitochondrial photina luminescence (agonist Bz-ATP at EC50); assay type: cell-based; parameters: host or cells: HEK 293 (recombinant, constitutively expressing; with mitochondrial photina in Assay B); details: HEK human P2X4 cell line, photina luminescence, agonist Bz-ATP at EC50, average; for Emax: read-out: human P2X4 Assay B avg Efficacy
T1 sequence (Q99571 1-388): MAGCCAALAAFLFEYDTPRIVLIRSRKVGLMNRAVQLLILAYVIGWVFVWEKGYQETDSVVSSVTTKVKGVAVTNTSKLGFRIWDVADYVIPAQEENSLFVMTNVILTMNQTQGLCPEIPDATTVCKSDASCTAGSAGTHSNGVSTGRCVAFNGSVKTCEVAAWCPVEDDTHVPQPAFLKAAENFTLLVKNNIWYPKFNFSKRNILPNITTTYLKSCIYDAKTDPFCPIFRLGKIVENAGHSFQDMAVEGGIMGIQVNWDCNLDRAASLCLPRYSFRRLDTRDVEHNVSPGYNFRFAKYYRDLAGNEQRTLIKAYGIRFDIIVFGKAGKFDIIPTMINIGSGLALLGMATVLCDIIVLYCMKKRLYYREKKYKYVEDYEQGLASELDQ
In short: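 Recombinant cell line constitutively expressing human P2X4 and mitochondrial photina photoprotein, reconstituted with coelenterazine. Receptor stimulated with Bz-ATP at EC50; calcium influx read immediately as luminescence.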

[2] = target: T1, P2X4; experiment: Assay A: human P2X4 receptor cell line, FLIPR calcium assay (Fluo-8, agonist Bz-ATP at EC80); assay type: cell-based; parameters: host or cells: HEK 293 (recombinant, constitutively expressing; with mitochondrial photina in Assay B); details: HEK human P2X4 cells, Fluo-8 FLIPR; for IC50: Bz-ATP at EC80, average values; for Emax: percentage of maximal inhibition, read-out: human P2X4 Assay A avg Efficacy
Method: A fluorescent imaging plate reader (FLEX/FLIPR station; Molecular Devices) was used to monitor intracellular calcium levels using the calcium-chelating dye Fluo-8 (Molecular Probes). […] Cells expressing purinergic receptors human P2X4 (HEK human P2X4: PerkinElmer, Product No.: AX-015-PCF) were plated at a density of 20,000 cells/well in poly-D-lysine-coated 384-well plates approximately 20 hours before beginning the assay. On the day of the assay, the medium was removed and 30 μl of dye buffer (Hank's balanced salt solution, 10 mM HEPES, 1.8 mM CaCl2), 1 mM MgCl2, 2 mM probenecid, 5 mM D-glucose monohydrate, 5 μM Fluo-8, pH=7.4) was added for 30 min at […] and 5% CO2. The antagonist in probenecid buffer (Hank's balanced salt solution, 10 mM HEPES, 1.8 mM CaCl2, 1 mM MgCl2, 2 mM probenecid, 5 mM D-glucose monohydrate, pH=7.4) was added in a volume of 10 μl and allowed to incubate for 30 min at room temperature. The final assay DMSO concentration is 0.5%. The agonist, Bz-ATP, is added in a volume of 10 μl at a concentration representing the EC80 value. The fluorescence was measured for an interval of 120 sec at 2 sec intervals and analyzed based on the increase in peak relative fluorescence units (RFU) compared to the basal fluorescence. Peak fluorescence was used to determine the response to agonist obtained at each concentration of antagonist by the following equation:
% Response=100*(RFU(drug)−RFU(control))/(RFU(DMSO)−RFU(control))
The compounds were tested in triplicates per plate and mean values were plotted in Excel XLFit to determine IC50 values, percentage of maximal inhibition and the Hill coefficients.

Row | IC50 [1] | Emax [1] [%] | IC50 [2] [nM] | Emax [2] [%] | Structure (SMILES)
1 | 491 nM | 75 | – | – | N#Cc1cccc(CC(=O)Nc2ccc(Oc3cccc(Cl)c3)c(S(N)(=O)=O)c2)c1 [Example 226, N-[4-(3-Chlorophenoxy)-3-sulfamoylphenyl]-2-(3-cyanophenyl)acetamide]
2 | 1770 nM | 69 | – | – | NS(=O)(=O)c1cc(NC(=O)Cc2ccc(C(F)(F)F)cc2)ccc1Oc1ccc(Cl)cc1 [Example 227, N-[4-(4-Chlorophenoxy)-3-sulfamoylphenyl]-2-[4-(trifluoromethyl)phenyl]acetamide]
3 | 1590 nM | 58 | – | – | NS(=O)(=O)c1cc(NC(=O)Cc2ccc(Cl)cc2)ccc1Oc1ccc(Cl)cc1 [Example 228, N-[4-(4-Chlorophenoxy)-3-sulfamoylphenyl]-2-(4-chlorophenyl)acetamide]
4 | – | 50 | – | – | NS(=O)(=O)c1cc(NC(=O)Cc2ccccc2F)ccc1Oc1ccc(Cl)cc1 [Example 230, N-[4-(4-Chlorophenoxy)-3-sulfamoylphenyl]-2-(2-fluorophenyl)acetamide]
5 | 2870 nM and > 16000 nM | 71 | – | – | NS(=O)(=O)c1cc(NC(=O)Cc2c(Cl)cc(C(F)(F)F)cc2Cl)ccc1Oc1ccc(Cl)cc1 [Example 242, N-[4-(4-Chlorophenoxy)-3-sulfamoylphenyl]-2-[2,6-dichloro-4-(trifluoromethyl)phenyl]acetamide]
6 | 2720 nM | 70 | – | – | N#Cc1cc(Cl)c(CC(=O)Nc2ccc(Oc3ccc(Cl)cc3)c(S(N)(=O)=O)c2)cc1Cl [Example 243, N-[4-(4-Chlorophenoxy)-3-sulfamoylphenyl]-2-(2,5-dichloro-4-cyanophenyl)acetamide]
7 | 1280 nM | 62 | – | – | NS(=O)(=O)c1cc(NC(=O)Cc2ccccc2)ccc1Oc1ccc(F)cc1 [Example 248, N-[4-(4-Fluorophenoxy)-3-sulfamoylphenyl]-2-phenylacetamide]
8 | 392 nM | 100 | – | – | Cc1ccc(F)c(Oc2ccc(NC(=O)Cc3ccccc3)cc2S(N)(=O)=O)c1 [Example 251, N-[4-(2-Fluoro-5-methylphenoxy)-3-sulfamoylphenyl]-2-phenylacetamide]
9 | 6460 nM | 93 | – | – | NS(=O)(=O)c1cc(NC(=O)Cc2ccccc2)ccc1Oc1ccc(OC(F)(F)F)cc1 [Example 252, 2-Phenyl-N-{3-sulfamoyl-4-[4-(trifluoromethoxy)phenoxy]phenyl}acetamide]
10 | – | – | 19 | 75 | NS(=O)(=O)c1cc(NC(=O)Cc2ccc(O)cc2)ccc1Oc1cccc(Cl)c1 [Example 256, N-[4-(3-Chlorophenoxy)-3-sulfamoylphenyl]-2-(4-hydroxyphenyl)acetamide]
11 | > 50000 nM | 35 | – | – | NS(=O)(=O)c1cc(NC(=O)Cc2ccc3c(c2)OCCO3)ccc1Oc1ccc(Cl)cc1 [Example 276, N-[4-(4-Chlorophenoxy)-3-sulfamoylphenyl]-2-(2,3-dihydro-1,4-benzodioxin-6-yl)acetamide]

Continued, compound first:

Row | Structure (SMILES) | IC50 [1] | Emax [1] [%] | IC50 [2] [nM] | Emax [2] [%]
12 | N#Cc1ccccc1CC(=O)Nc1ccc(Oc2cccc(Cl)c2)c(S(N)(=O)=O)c1 [Example 225, N-[4-(3-Chlorophenoxy)-3-sulfamoylphenyl]-2-(2-cyanophenyl)acetamide] | 192 nM | 98 | – | –
13 | Cn1ccc(Oc2ccc(NC(=O)Cc3ccccc3Cl)cc2S(N)(=O)=O)n1 [Example 236, 2-(2-Chlorophenyl)-N-{4-[(1-methyl-1H-pyrazol-3-yl)oxy]-3-sulfamoylphenyl}acetamide] | 232 nM | 77 | – | –
14 | Cn1nccc1Oc1ccc(NC(=O)Cc2ccccc2Cl)cc1S(N)(=O)=O [Example 237, 2-(2-Chlorophenyl)-N-{4-[(1-methyl-1H-pyrazol-5-yl)oxy]-3-sulfamoylphenyl}acetamide] | 235 nM | 59 | – | –
15 | CN1CCC(Oc2ccc(NC(=O)Cc3ccccc3Cl)cc2S(N)(=O)=O)CC1 [Example 238, 2-(2-Chlorophenyl)-N-{4-[(1-methylpiperidin-4-yl)oxy]-3-sulfamoylphenyl}acetamide] | > 16000 nM | – | – | –
16 | Cc1sc(-c2cccnc2)nc1Oc1ccc(NC(=O)Cc2ccccc2Cl)cc1S(N)(=O)=O [Example 239, 2-(2-Chlorophenyl)-N-(4-{[5-methyl-2-(pyridin-3-yl)-1,3-thiazol-4-yl]oxy}-3-sulfamoylphenyl)acetamide] | 152 nM | 99 | – | –
17 | Cc1cc(Oc2cccc(Cl)c2)c(S(N)(=O)=O)cc1NC(=O)Cc1ccccc1Cl [Example 240, N-[4-(3-Chlorophenoxy)-2-methyl-5-sulfamoylphenyl]-2-(2-chlorophenyl)acetamide] | 3040 nM | 86 | – | –
18 | NS(=O)(=O)c1cc(NC(=O)Cc2ccccc2Cl)ccc1OC1CC[S+]([O-])C1 (centres unmarked) [Example 241, 2-(2-Chlorophenyl)-N-{4-[(1-oxidotetrahydrothiophen-3-yl)oxy]-3-sulfamoylphenyl}acetamide] | > 16000 nM | 34 | – | –
19 | NS(=O)(=O)c1cc(NC(=O)Cc2ccccc2)ccc1OCC1CC1 [Example 245, N-[4-(Cyclopropylmethoxy)-3-sulfamoylphenyl]-2-phenylacetamide] | 5970 nM | 68 | – | –
20 | Cc1cc(C)cc(Oc2ccc(NC(=O)Cc3ccccc3)cc2S(N)(=O)=O)c1 [Example 246, N-[4-(3,5-Dimethylphenoxy)-3-sulfamoylphenyl]-2-phenylacetamide] | 949 nM | 94 | – | –
21 | NS(=O)(=O)c1cc(NC(=O)Cc2ccccc2)ccc1Oc1ccc(F)cc1F [Example 247, N-[4-(2,4-Difluorophenoxy)-3-sulfamoylphenyl]-2-phenylacetamide] | 1110 nM | 59 | – | –
22 | NS(=O)(=O)c1cc(NC(=O)Cc2ccccc2)ccc1Oc1cccc(F)c1 [Example 249, N-[4-(3-Fluorophenoxy)-3-sulfamoylphenyl]-2-phenylacetamide] | 544 nM | 73 | – | –
23 | COc1cccc(Oc2ccc(NC(=O)Cc3ccccc3)cc2S(N)(=O)=O)c1 [Example 250, N-[4-(3-Methoxyphenoxy)-3-sulfamoylphenyl]-2-phenylacetamide] | 439 nM | 82 | – | –
24 | NS(=O)(=O)c1cc(NC(=O)Cc2ccccc2)ccc1Oc1cccc(C(F)(F)F)c1 [Example 253, 2-Phenyl-N-{3-sulfamoyl-4-[3-(trifluoromethyl)phenoxy]phenyl}acetamide] | 236 nM | 71 | – | –
25 | N#Cc1cccc(Oc2ccc(NC(=O)Cc3ccccc3)cc2S(N)(=O)=O)c1 [Example 255, N-[4-(3-Cyanophenoxy)-3-sulfamoylphenyl]-2-phenylacetamide] | 271 nM | 64 | – | –
26 | COc1cc(C)cc(Cl)c1CC(=O)Nc1ccc(Oc2cccc(Cl)c2)c(S(N)(=O)=O)c1 [Example 257, 2-(2-Chloro-6-methoxy-4-methylphenyl)-N-[4-(3-chlorophenoxy)-3-sulfamoylphenyl]acetamide] | – | – | 355 | 85
27 | NS(=O)(=O)c1cc(NC(=O)Cc2c(F)cc(F)cc2Cl)ccc1Oc1cccc(Cl)c1 [Example 259, 2-(2-Chloro-4,6-difluorophenyl)-N-[4-(3-chlorophenoxy)-3-sulfamoylphenyl]acetamide] | – | – | 145 | 76
28 | CC(C(=O)Nc1ccc(Oc2cccc(Cl)c2)c(S(N)(=O)=O)c1)c1c(Cl)cccc1Cl (centres unmarked) [Example 260, N-[4-(3-Chlorophenoxy)-3-sulfamoylphenyl]-2-(2,6-dichlorophenyl)propanamide] | – | – | 2490 | 90
29 | NS(=O)(=O)c1cc(NC(=O)Cc2cc3c(cc2Cl)OCCO3)ccc1Oc1cccc(Cl)c1 [Example 277, 2-(7-Chloro-2,3-dihydro-1,4-benzodioxin-6-yl)-N-[4-(3-chlorophenoxy)-3-sulfamoylphenyl]acetamide] | 185 nM | 45 | – | –
